In patent US20110281896A1, “OPTICALLY PURE QUINAZOLINE COMPOUNDS” (Jiangsu Hansoh Pharmaceutical Co. Ltd, priority 2009, published 2011):

How the values were obtained:
MCF-7 = test: Antitumor activity in vitro, SRB cell proliferation inhibition; assay type: cell-based; settings: 72 h incubation, Logit method
Experimental: (§1) Evaluation of Antitumor Activity In Vitro
(§2) Cell Strains: A431; MCF-7
(§3) Experiment Design: Cells were incubated with different concentrations of compounds for 72 hours. The inhibition of cell proliferation by the compounds was evaluated by SRB, followed by calculation of the inhibition rate. Then, value of IC50 was calculated by using-Logit method base on the inhibition rate and used to compare in vitro antitumor activity of the compounds.
(§4) Method for Calculating the Inhibition Rate: Inhibition rate (%)=(OD value of control group−OD value of drug group)/OD value of control group×100%

A431 = test: as above; assay type: cell-based; settings: 72 h incubation, Logit method
Experimental: as §1, §2, §3, §4

[1] = Homo sapiens, MCF7, MCF-7 cells
[2] = Homo sapiens, A-431, A431 cells

SMILES | IC50 (MCF-7; [1]) [nM] | IC50 (A431; [2]) [nM] | IC50 (MCF-7; MCF-7 cells) [nM] | IC50 (A431; A431 cells) [nM]
CS(=O)(=O)C[C@@H](N)c1ccc(-c2ccc3ncnc(Nc4ccc(OCc5cccc(F)c5)c(Cl)c4)c3c2)o1 [Compound 92, (S)—N-(4-(3-fluorobenzyl-oxy)-3-chlorophenyl)-6-(5-(1-(amino)-2-(methylsulfonyl)ethyl)furan-2-yl)quinazolin-4-amine] | 9340 | 422 | – | –
CN(C1CC1)[C@H](CS(C)(=O)=O)c1ccc(-c2ccc3ncnc(Nc4ccc(OCc5cccc(F)c5)c(Cl)c4)c3c2)o1 [Compound 96, (S)—N-(4-(3-fluorobenzyl-oxy)-3-chlorophenyl)-6-(5-(1-(cyclopropyl-methyl-amino)-2-(methylsulfonyl)ethyl)furan-2-yl)quinazolin-4-amine] | 6700 | 578 | – | –
CCN(CC)[C@H](CS(C)(=O)=O)c1ccc(-c2ccc3ncnc(Nc4ccc(OCc5cccc(F)c5)c(Cl)c4)c3c2)o1 [Compound 98, (S)—N-(4-(3-fluorobenzyl-oxy)-3-chlorophenyl)-6-(5-(1-(N,N-diethyl-amino)-2-(methyl-sulfonyl)ethyl)furan-2-yl)quinazolin-4-amine] | 7660 | 677 | – | –
CCCN(CCC)[C@H](CS(C)(=O)=O)c1ccc(-c2ccc3ncnc(Nc4ccc(OCc5cccc(F)c5)c(Cl)c4)c3c2)o1 [Compound 99, (S)—N-(4-(3-fluorobenzyl-oxy)-3-chlorophenyl)-6-(5-(1-(N,N-dipropyl-amino)-2-(methylsulfonyl)ethyl)furan-2-yl)quinazolin-4-amine] | 5920 | 759 | – | –
CCN(C)[C@H](CS(C)(=O)=O)c1ccc(-c2ccc3ncnc(Nc4ccc(OCc5cccc(F)c5)c(Cl)c4)c3c2)o1 [Compound 100, (S)—N-(4-(3-fluorobenzyl-oxy)-3-chlorophenyl)-6-(5-(1-(N-methyl, N-ethyl-amino)-2-(methylsulfonyl)ethyl)furan-2-yl)quinazolin-4-amine] | 9900 | 489 | – | –
CON[C@H](CS(C)(=O)=O)c1ccc(-c2ccc3ncnc(Nc4ccc(OCc5cccc(F)c5)c(Cl)c4)c3c2)o1 [Compound 103] | – | – | 8820 | 479
CON(C)[C@H](CS(C)(=O)=O)c1ccc(-c2ccc3ncnc(Nc4ccc(OCc5cccc(F)c5)c(Cl)c4)c3c2)o1 [Compound 104] | – | – | 9000 | 632
CS(=O)(=O)C[C@H](N)c1ccc(-c2ccc3ncnc(Nc4ccc(OCc5cccc(F)c5)c(Cl)c4)c3c2)o1 [Compound 105, (R)—N-(4-(3-fluorobenzyl-oxy)-3-chlorophenyl)-6-(5-(1-(amino)-2-(methylsulfonyl)ethyl)furan-2-yl)quinazolin-4-amine] | 7860 | 664 | – | –
CS(=O)(=O)C[C@H](NCC1CC1)c1ccc(-c2ccc3ncnc(Nc4ccc(OCc5cccc(F)c5)c(Cl)c4)c3c2)o1 [Compound 109, (R)—N-(4-(3-fluorobenzyl-oxy)-3-chlorophenyl)-6-(5-(1-(cyclopropylmethyl-amino)-2-(methylsulfonyl)ethyl)furan-2-yl)quinazolin-4-amine] | 6210 | 756 | – | –
CCN(CC)[C@@H](CS(C)(=O)=O)c1ccc(-c2ccc3ncnc(Nc4ccc(OCc5cccc(F)c5)c(Cl)c4)c3c2)o1 [Compound 111, (R)—N-(4-(3-fluorobenzyl-oxy)-3-chlorophenyl)-6-(5-(1-(N,N-diethyl-amino)-2-(methylsulfonyl)ethyl)furan-2-yl)quinazolin-4-amine] | 6820 | 699 | – | –
CCCN(CCC)[C@@H](CS(C)(=O)=O)c1ccc(-c2ccc3ncnc(Nc4ccc(OCc5cccc(F)c5)c(Cl)c4)c3c2)o1 [Compound 112, (R)—N-(4-(3-fluorobenzyl-oxy)-3-chlorophenyl)-6-(5-(1-(N,N-dipropyl-amino)-2-(methylsulfonyl)ethyl)furan-2-yl)quinazolin-4-amine] | 6220 | 855 | – | –
CCN(C)[C@@H](CS(C)(=O)=O)c1ccc(-c2ccc3ncnc(Nc4ccc(OCc5cccc(F)c5)c(Cl)c4)c3c2)o1 [Compound 113, (R)—N-(4-(3-fluorobenzyloxy)-3-chlorophenyl)-6-(5-(1-(N-methyl, N-ethyl-amino)-2-(methylsulfonyl)ethyl)furan-2-yl)quinazolin-4-amine] | 7070 | 758 | – | –
CON[C@@H](CS(C)(=O)=O)c1ccc(-c2ccc3ncnc(Nc4ccc(OCc5cccc(F)c5)c(Cl)c4)c3c2)o1 [Compound 116] | – | – | 4800 | 441
CON(C)[C@@H](CS(C)(=O)=O)c1ccc(-c2ccc3ncnc(Nc4ccc(OCc5cccc(F)c5)c(Cl)c4)c3c2)o1 [Compound 117] | – | – | 7630 | 636
CS(=O)(=O)C[C@H](N)c1cnc(-c2ccc3ncnc(Nc4ccc(OCc5cccc(F)c5)c(Cl)c4)c3c2)s1 [Compound 118, (S)—N-(4-(3-fluorobenzyl-oxy)-3-chlorophenyl)-6-(5-(1-(amino)-2-(methylsulfonyl)ethyl)thiazole-2-yl)quinazolin-4-amine] | 6690 | 525 | – | –
CN[C@@H](CS(C)(=O)=O)c1cnc(-c2ccc3ncnc(Nc4ccc(OCc5cccc(F)c5)c(Cl)c4)c3c2)s1 [Compound 119] | – | – | 6120 | 588
CCN[C@@H](CS(C)(=O)=O)c1cnc(-c2ccc3ncnc(Nc4ccc(OCc5cccc(F)c5)c(Cl)c4)c3c2)s1 [Compound 120] | – | – | 7560 | 658
CCCN[C@@H](CS(C)(=O)=O)c1cnc(-c2ccc3ncnc(Nc4ccc(OCc5cccc(F)c5)c(Cl)c4)c3c2)s1 [Compound 121] | – | – | 6390 | 465
CN(C)[C@@H](CS(C)(=O)=O)c1cnc(-c2ccc3ncnc(Nc4ccc(OCc5cccc(F)c5)c(Cl)c4)c3c2)s1 [Compound 123] | – | – | 6330 | 499
CCN(CC)[C@@H](CS(C)(=O)=O)c1cnc(-c2ccc3ncnc(Nc4ccc(OCc5cccc(F)c5)c(Cl)c4)c3c2)s1 [Compound 124] | – | – | 7980 | 685

More lines, now with the values ahead:

IC50 (MCF-7; [1]) [nM] | IC50 (A431; [2]) [nM] | IC50 (MCF-7; MCF-7 cells) [nM] | IC50 (A431; A431 cells) [nM] | SMILES
– | – | 8860 | 460 | CN[C@H](CS(C)(=O)=O)c1ccc(-c2ccc3ncnc(Nc4ccc(OCc5cccc(F)c5)c(Cl)c4)c3c2)o1 [Compound 93, (S)—N-(4-(3-fluorobenzyl-oxy)-3-chlorphenyl)-6-(5-(1-(methylamino)-2-(methylsulfonyl)ethyl)furan-2-yl)quinazolin-4-amine]
7850 | 652 | – | – | CCN[C@H](CS(C)(=O)=O)c1ccc(-c2ccc3ncnc(Nc4ccc(OCc5cccc(F)c5)c(Cl)c4)c3c2)o1 [Compound 94, (S)—N-(4-(3-fluorobenzyl-oxy)-3-chlorophenyl)-6-(5-(1-(ethylamino)-2-(methylsulfonyl)ethyl)furan-2-yl)quinazolin-4-amine]
7900 | 453 | – | – | CCCN[C@H](CS(C)(=O)=O)c1ccc(-c2ccc3ncnc(Nc4ccc(OCc5cccc(F)c5)c(Cl)c4)c3c2)o1 [Compound 95, (S)—N-(4-(3-fluorobenzyl-oxy)-3-chlorophenyl)-6-(5-(1-(propyl-amino)-2-(methylsulfonyl)ethyl)furan-2-yl)quinazolin-4-amine]
10400 | 588 | – | – | C=CCN[C@H](CS(C)(=O)=O)c1ccc(-c2ccc3ncnc(Nc4ccc(OCc5cccc(F)c5)c(Cl)c4)c3c2)o1 [Compound 101, (S)—N-(4-(3-fluorobenzyl-oxy)-3-chlorophenyl)-6-(5-(1-(allyl-amino)-2-(methylsulfonyl)ethyl)furan-2-yl)quinazolin-4-amine]
8900 | 457 | – | – | C#CCN[C@H](CS(C)(=O)=O)c1ccc(-c2ccc3ncnc(Nc4ccc(OCc5cccc(F)c5)c(Cl)c4)c3c2)o1 [Compound 102, (S)—N-(4-(3-fluorobenzyl-oxy)-3-chlorophenyl)-6-(5-(1-(propargyl-amino)-2-(methylsulfonyl)ethyl)furan-2-yl)quinazolin-4-amine]
7800 | 469 | – | – | CN[C@@H](CS(C)(=O)=O)c1ccc(-c2ccc3ncnc(Nc4ccc(OCc5cccc(F)c5)c(Cl)c4)c3c2)o1 [Compound 106, (R)—N-(4-(3-fluorobenzyl-oxy)-3-chlorophenyl)-6-(5-(1-(methylamino)-2-(methylsulfonyl)ethyl)furan-2-yl)quinazolin-4-amine]
6770 | 578 | – | – | CCN[C@@H](CS(C)(=O)=O)c1ccc(-c2ccc3ncnc(Nc4ccc(OCc5cccc(F)c5)c(Cl)c4)c3c2)o1 [Compound 107, (R)—N-(4-(3-fluorobenzyl-oxy)-3-chlorophenyl)-6-(5-(1-(ethylamino)-2-(methylsulfonyl)ethyl)furan-2-yl)quinazolin-4-amine]
5900 | 529 | – | – | CCCN[C@@H](CS(C)(=O)=O)c1ccc(-c2ccc3ncnc(Nc4ccc(OCc5cccc(F)c5)c(Cl)c4)c3c2)o1 [Compound 108, (R)—N-(4-(3-fluorobenzyl-oxy)-3-chlorophenyl)-6-(5-(1-(propylamino)-2-(methylsulfonyl)ethyl)furan-2-yl)quinazolin-4-amine]
7900 | 489 | – | – | C=CCN[C@@H](CS(C)(=O)=O)c1ccc(-c2ccc3ncnc(Nc4ccc(OCc5cccc(F)c5)c(Cl)c4)c3c2)o1 [Compound 114, (R)—N-(4-(3-fluorobenzyl-oxy)-3-chlorophenyl)-6-(5-(1-(allyl-amino)-2-(methylsulfonyl)ethyl)furan-2-yl)quinazolin-4-amine]
7580 | 536 | – | – | C#CCN[C@@H](CS(C)(=O)=O)c1ccc(-c2ccc3ncnc(Nc4ccc(OCc5cccc(F)c5)c(Cl)c4)c3c2)o1 [Compound 115, (R)—N-(4-(3-fluorobenzyl-oxy)-3-chlorophenyl)-6-(5-(1-(propargyl-amino)-2-(methylsulfonyl)ethyl)furan-2-yl)quinazolin-4-amine]
